We go through four molecules from publication PMC8969271, “Release of moth pheromone compounds from Nicotiana benthamiana upon transient expression of heterologous biosynthetic genes” (BMC Biology, 2022).

Holding throughout (assay type): cell-based
One test concerns the target T1, CsupKPSE (Chilo suppressalis, UniProt A0A5Q0V425).
T1 construct: full-length ORF 1059 nt, 353 aa; synthesized gene; expressed in S. cerevisiae ole1/elo1 and N. benthamiana leaves
T1 sequence (A0A5Q0V425 20-371): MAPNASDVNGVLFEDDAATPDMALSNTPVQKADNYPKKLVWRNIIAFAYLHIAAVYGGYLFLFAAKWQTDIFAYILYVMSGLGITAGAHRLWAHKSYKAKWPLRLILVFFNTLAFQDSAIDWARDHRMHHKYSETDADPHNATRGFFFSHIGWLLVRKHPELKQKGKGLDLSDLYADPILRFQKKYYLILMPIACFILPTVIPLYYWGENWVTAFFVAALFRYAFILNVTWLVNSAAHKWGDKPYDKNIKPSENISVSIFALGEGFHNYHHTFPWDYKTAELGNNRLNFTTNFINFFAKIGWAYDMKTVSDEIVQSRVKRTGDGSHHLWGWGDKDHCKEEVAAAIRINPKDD
Nature of the test: heterologous expression in yeast and N. benthamiana, GC/MS of fatty acid methyl esters. The conditions noted are these: endogenous palmitic acid (acyl form in cells, presumably acyl-CoA); product (Z)-9-hexadecenoic acid.

A further test deals with T2, ATF1 (Saccharomyces cerevisiae, UniProt P40353).
T2 construct: expressed transiently in N. benthamiana leaves with AtrΔ11, CpuFatB1, CsupYPAQ and CsupFAR2
T2 sequence (P40353 1-525): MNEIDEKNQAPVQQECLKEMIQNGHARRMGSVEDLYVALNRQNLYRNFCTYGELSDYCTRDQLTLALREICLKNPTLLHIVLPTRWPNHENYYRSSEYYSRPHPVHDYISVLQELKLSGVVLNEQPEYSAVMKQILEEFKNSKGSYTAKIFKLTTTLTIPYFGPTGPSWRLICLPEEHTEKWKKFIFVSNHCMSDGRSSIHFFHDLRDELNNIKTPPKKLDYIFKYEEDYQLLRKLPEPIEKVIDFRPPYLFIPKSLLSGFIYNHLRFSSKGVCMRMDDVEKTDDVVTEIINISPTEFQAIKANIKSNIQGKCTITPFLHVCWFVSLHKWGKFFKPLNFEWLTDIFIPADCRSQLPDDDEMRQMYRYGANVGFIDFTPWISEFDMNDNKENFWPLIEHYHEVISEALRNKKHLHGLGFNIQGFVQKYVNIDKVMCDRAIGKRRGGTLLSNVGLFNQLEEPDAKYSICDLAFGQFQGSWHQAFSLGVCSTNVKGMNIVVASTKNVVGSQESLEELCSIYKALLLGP
Nature of the test: co-expression with desaturases and CsupFAR2 in N. benthamiana leaves, SPME and GC/MS. The note with it: endogenous acetyl donor; product (Z)-11-hexadecenyl acetate.

Test [1] deals with T3, CsupFAR2 (Chilo suppressalis, UniProt A0A3S2LS93).
T3 construct: full-length ORF 1404 nt, 468 aa; synthesized gene; expressed in S. cerevisiae INVSc (pYES52) and N. benthamiana leaves
T3 sequence (A0A3S2LS93 1-468): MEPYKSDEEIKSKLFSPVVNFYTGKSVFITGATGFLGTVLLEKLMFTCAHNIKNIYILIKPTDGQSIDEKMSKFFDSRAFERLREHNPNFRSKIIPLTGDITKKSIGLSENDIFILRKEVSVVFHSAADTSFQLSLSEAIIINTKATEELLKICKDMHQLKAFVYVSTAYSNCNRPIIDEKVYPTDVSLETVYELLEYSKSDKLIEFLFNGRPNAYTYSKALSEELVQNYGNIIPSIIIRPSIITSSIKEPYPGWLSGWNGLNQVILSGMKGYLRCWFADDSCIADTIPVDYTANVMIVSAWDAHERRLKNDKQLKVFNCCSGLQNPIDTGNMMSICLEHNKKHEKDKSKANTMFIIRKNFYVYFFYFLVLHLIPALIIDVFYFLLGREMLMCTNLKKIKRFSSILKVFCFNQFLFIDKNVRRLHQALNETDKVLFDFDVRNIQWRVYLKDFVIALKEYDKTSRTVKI
The test can be described thus: heterologous expression in yeast and N. benthamiana, GC/MS of fatty alcohols. The note with it: yeast supplemented with methyl (Z)-11-hexadecenoate or co-expressing CsupYPAQ; acyl form in cells, presumably acyl-CoA; product (Z)-11-hexadecenol.

Test [2] has as its target T3, CsupFAR2. The test can be described thus: co-expression with CsupKPSE in N. benthamiana leaves, GC/MS of fatty alcohols. The note with it: acyl form in cells, presumably acyl-CoA; product (Z)-9-hexadecenol.

As to `CCCCCCCCCCCCCCCC(=O)O` [16:acid, palmitic acid], the “heterologous expression in yeast and N. benthamiana, GC/MS of fatty acid methyl” value on CsupKPSE was “CsupKPSE producing Z9-16:acid, the precursor of the minor pheromone component from palmitic acid”.

Take `CCCC/C=C\CCCCCCCCCCO` [Z11-16:OH, (Z)-11-hexadecenol]: the “co-expression with desaturases and CsupFAR2 in N. benthamiana leaves, SPME and G” value on ATF1 is “Upon co-expression of the acetyltransferase gene ATF1, Z11-16:OAc was also released together with Z11-16:OH”.

As to `CCCC/C=C\CCCCCCCCCC(=O)O` [Z11-16:acid, (Z)-11-hexadecenoic acid], the “heterologous expression in yeast and N. benthamiana, GC/MS of fatty alcohols” value at CsupFAR2 [1] is reported as “it reduced the C. suppressalis pheromone precursors Z11-16:acid, Z9-16:acid”.

In the case of `CCCCCC/C=C\CCCCCCCC(=O)O` [Z9-16:acid, (Z)-9-hexadecenoic acid], the “co-expression with CsupKPSE in N. benthamiana leaves, GC/MS of fatty alcohols” value at CsupFAR2 [2] was “a minor amount of (Z)-9-hexadecenol (Z9-16:OH) was produced”.
